Non-standard residues stand in square brackets, D forms with d. Residues, ends and D or L forms follow the SMILES beside them.
Key:
MV-411 and MOLM-13 cells = assay: qRT-PCR of BCL2 mRNA expression; assay type: cell-based, human; settings: 20 μM, 6 h
Method: RNA was isolated using Trizol reagent according to the manufacturer’s instructions (Life Technologies). Complementary DNA was synthesized using the SuperScript III First-Strand Synthesis system according to the manufacturer’s instructions (Invitrogen). Quantitative real-time PCR was performed using the KAPA SYBR FAST PCR polymerase with 20 ng template and 200 nM primers, according to the manufacturer’s instructions (Kapa Biosystems, Wilmington, MA, USA). PCR primers are listed in Supplementary Table 4. Ct values were calculated using ROX normalization using the ViiA 7 software (Applied Biosystems).

AML cells = assay: Flow cytometry of differentiation markers; assay type: cell-based, human
Method: (§1) Cells were resuspended to a concentration of 1 × 10^6 cells were plated in triplicate in a 12-well tissue culture plate. For assessment of annexin V staining, cells were washed with PBS and then resuspended in PBS with Annexin V-APC (BioLegend) and propidium iodide at a dilution of 1:1000. For intracellular detection of cleaved caspase 3, cells were fixed and permeabilized using the BD Cytofix/Cytoperm Fixation/Permeabilization solution according to the manufacturer’s instructions (BD Biosciences). Cells were then stained using the Alexa Fluor 647-conjugated anti-active caspase-3 (BD Biosciences) at a dilution of 1:50. Cells were incubated for 30 minutes room temperature in the dark, washed, and then analyzed using the BD LSRFortessa cell analyzer. For assessment of differentiation, cells were stained using the anti-human CD14 PE at a dilution of 1:20 (Affymetrix eBiosciences) and anti-human CD66b at a dilution of 1:20 (Affymetrix eBiosciences).

MYB:CBP/P300 complex = assay: Co-immunoprecipitation of MYB:CBP/P300 complex from MV-411 cells; assay type: binding, human; settings: 20 μM, immunoprecipitation with anti-MYB, 3 h, 4 °C, western blot
Method: (§2) Cells were lysed in RIPA buffer (Thermo Fisher) supplemented with a protease inhibitor mix comprised of AEBSF (0.5 mM concentration, Santa Cruz, SC-202041B), Bestatin (0.01 mM, Fisher/Alfa Aesar, J61106-MD), Leupeptin (0.1 mM, Santa Cruz, SC-295358B), and Pepstatin (0.001 mM, Santa Cruz, SC-45036A). Lysates were mechanically disrupted using Covaris S220 adaptive focused sonicator, according to the manufacturer’s instructions (Covaris, Woburn, CA). Lysates were cleared by centrifugation for 15 min at 18,000 × g and clarified lysates were quantified using the bicinchoninic acid assay (Pierce). Clarified lysates (20 μg of protein) were resolved using sodium dodecyl sulfate-polyacrylamide gel electrophoresis, and electroeluted using the Immobilon FL PVDF membranes (Millipore, Billerica, MA, USA). Membranes were blocked using the Odyssey Blocking buffer (Li-Cor, Lincoln, Nebraska, USA). The following primary antibodies were used as indicated: anti-MYB (1:1000, 05-175, Millipore), anti-CBP (1:1000, PA1-847, Invitrogen), anti-BCL2 (1:1000, 200-401-222, Rockland), anti-β actin (1:1000, 8H10D10, Cell Signaling). […] Blotted membranes were visualized using secondary antibodies conjugated to IRDye 800CW or IRDye 680RD (Goat anti-rabbit, 1:15,000, and goat anti-mouse, 1:15,000) and the Odyssey CLx fluorescence scanner, according to manufacturer’s instructions (Li-Cor, Lincoln, Nebraska, USA). […]

MV-411 cells = assay: Flow cytometric analysis of apoptosis; assay type: cell-based, human; settings: 20 μM, 24 h, flow cytometry, p = 5.4e-3
Method: as §1

CBP/P300 = assay: Streptavidin affinity purification of CBP/P300 from MV-411 cell extracts with BIO-MYBMIM, with peptide competition; assay type: binding, human; settings: 20-fold molar excess free peptide, MV-411 extracts, western blot
Method: as §2

CC[C@@H](C)[C@@H](NC(=O)[C@@H](CCCCN)NC(=O)[C@@H](CCC(=O)O)NC(=O)[C@@H](CC(C)C)NC(=O)[C@@H](CCC(=O)O)NC(=O)[C@@H](CC(C)C)NC(=O)[C@@H](CC(C)C)NC(=O)[C@@H](CC(C)C)NC(=O)[C@@H](CCSC)NC(=O)[C@@H](CO)NC(=O)[C@H](NC(=O)[C@@H](CCC(=O)O)NC(=O)[C@@H](CC(N)=O)NC(=O)[C@@H](CCC(=O)O)NC(=O)[C@@H](CC(C)C)NC(=O)[C@@H](CCCCN)NC(C)=O)[C@H](C)O)C(=O)N[C@H](CCCNC(=N)N)C(=O)N[C@H](CCCCN)C(=O)NCC(=O)NCC(=O)N[C@H](CCCNC(=N)N)C(=O)N[C@H](CCCNC(=N)N)C(=O)N[C@H](CCCNC(=N)N)C(=O)N[C@H](CCC(N)=O)C(=O)N[C@H](CCCNC(=N)N)C(=O)N[C@H](CCCNC(=N)N)C(=O)N[C@H](CCCCN)C(=O)N[C@H](CCCCN)C(=O)N[C@H](CCCNC(=N)N)C(=O)NCC(=O)N[C@H](Cc1ccc(O)cc1)C(N)=O [MYBMIM] (Ac-[dK][dL][dE][dN][dE][dT][dS][dM][dL][dL][dL][dE][dL][dE][dK][dI][dR][dK]GG[dR][dR][dR][dQ][dR][dR][dK][dK][dR]G[dY]-NH2)
BCL2 expression downregulation (MV-411 and MOLM-13 cells): more than two-fold
CD14, CD66b and CD11b expression (AML cells): no significant changes
Dissociation of the cellular MYB:CBP/P300 complex (MYB:CBP/P300 complex): significant dissociation
Apoptosis by cell surface annexin V and intracellular caspase 3 cleavage (MV-411 cells): significant apoptosis
Displacement of cellular CBP/P300 from BIO-MYBMIM beads by free peptide (CBP/P300): displacement of cellular CBP/P300

Source: article PMC5760651, “Peptidomimetic blockade of MYB in acute myeloid leukemia” (Nature Communications, 2018)
